Source: patent publication US20260139007A1, “EPHA4 ANTAGONISTS AND USES THEREOF” (SANFORD BURNHAM PREBYS MEDICAL DISCOVERY INSTITUTE, priority 2023, published 2026)
“And” between values parts separate entries of the source, which are not always exact repeats. Equal entries are not always repeated. Where two headings read alike, the source gives them in different places. Marks after values point to notes of the source that are not given here. Numbered stars: 1 amine (or outer) side, 2 acyl side, 3 side chain; on linkers, the order of the positions; unused ones are H or OH. Bridge positions count the residues as written; N and C are the ends. Square brackets hold non-standard residues; d marks the D form. Side chains are listed from the residue outwards. Peptide text beside a SMILES is read from it. * marks the point of attachment. γGlu = O=C(O)[C@H](CCC(=O)[*:2])N[*:1]; βAsp = O=C(O)[C@H](CC(=O)[*:2])N[*:1]; Palmitoyl = CCCCCCCCCCCCCCCC(=O)*; Lauroyl = CCCCCCCCCCCC(=O)*; Octanoyl = CCCCCCCC(=O)*; βAla = NCCC(=O)O

Experiments:
[1] = target: EphA4 Fc; test: ELISA measuring inhibition of ephrin-A5 AP binding to immobilized EphA4 Fc; set-up: species or system human or mouse
[2] = In vivo half-life: active compound remaining in mouse blood, deduced from apparent IC50 of plasma in the EphA4-ephrinA5 ELISA; conditions: for half-life: in vivo, read-out: In vivo half-life (converted)
Method: To examine the persistence of compounds in the blood circulation, an approach was devised to determine the concentration of compound in mouse blood by taking advantage of the ELISA measuring inhibition of EphA4-ephrinA5 interaction.
Lipidated compounds dissolved in DMSO were diluted in […] PBS (to a 5% final DMSO concentration) or in […] PBS supplemented with 20 or 40 mg/mL BSA or 6.5 mM methyl-β-cyclodextrin for intravenous or intraperitoneal injection. Neutral pH of the compound solution was verified before injection. PEGylated compounds were dissolved in […] PBS before intraperitoneal injection. Peptides were sterile filtered before administration. Blood from each mouse was collected at 3 different time points after compound injection, the first 2 times by retro-orbital bleeding and the third time by terminal cardiac bleeding under deep anesthesia. Red blood cells were removed by centrifugation from blood treated with heparin and the resulting plasma was frozen in aliquots.
For each time point, a dose-response curves by measuring inhibition of EphA4-ephrinA5 binding at different plasma dilutions was obtained.

[3] = test system: EphA4 Fc; test: ELISA inhibition of ephrin-A5 AP binding to EphA4 Fc in the presence of HSA, BSA or methyl-β-cyclodextrin; conditions: for effect of HSA on potency: presence vs absence of 40 mg/mL HSA, tested in parallel; for IC50: read-out: IC50 ± SE (n) by ELISA with HSA or BSA, 40 mg/mL delipidated HSA
From the text: To determine whether albumin binding to the lipidated compounds affects their ability to bind EphA4, the effects of delipidated human serum albumin (HSA) on the inhibitory potency of some of the compounds were examined.

[4] = inhibition of ephrin-A5 AP binding to EphA4 Fc, averages of all experiments, read-out: IC50 ± SE (n) by ELISA
[5] = mouse, ip, mouse, IP (intraperitoneal administration)
[6] = mouse, iv, mouse, IV (intravenous administration)

CCCCCCCCCCCC(=O)N[C@@H](CCC(=O)NCCCC[C@H](NC(=O)CNC(=O)CNC(=O)[C@@H]1CSSC[C@H](NC(=O)[C@H](Cc2ccc(O)cc2)NC(=O)[C@@H]2CCCN2C(=O)CCN)C(=O)N[C@@H](C(C)C)C(=O)N[C@@H](Cc2ccc(O)cc2)C(=O)N[C@@H](CCCNC(=N)N)C(=O)NCCC(=O)N[C@@H](CO)C(=O)N[C@@H](Cc2c[nH]c3ccccc23)C(=O)N[C@@H](CO)C(=O)N1)C(=O)NCC(N)=O)C(=O)O [Compound 14]
IC50 [1, 4]: 52 ± 10 nM | FOLD INCREASE IN APPARENTIC IC COMPARED TO CONTROL ([2]; 0 minutes (control)): 1.0 fold | IC50 ([2]; 0 minutes: control, compound diluted in plasma in vitro): 81 nM | % PEPTIDE 14 REMAINING IN THE BLOOD ([2]; 0 minutes, ESTIMATED (all injected compound in 2.5 mL blood)): 100* % | FOLD INCREASE IN APPARENTIC IC COMPARED TO CONTROL ([2]; 60 minutes after intraperitoneal injection): 2.1 fold | % PEPTIDE 14 REMAINING IN THE BLOOD ([2]; 60 minutes after intraperitoneal injection, MEASURED): 48.2% | FOLD INCREASE IN APPARENTIC IC COMPARED TO CONTROL ([2]; 120 minutes after intraperitoneal injection): 5 fold and 4.6 fold | % PEPTIDE 14 REMAINING IN THE BLOOD ([2]; 120 minutes after intraperitoneal injection, MEASURED): 20% and 21.8% | FOLD INCREASE IN APPARENTIC IC COMPARED TO CONTROL ([2]; 240 minutes after intraperitoneal injection): 22.5 fold | % PEPTIDE 14 REMAINING IN THE BLOOD ([2]; 240 minutes after intraperitoneal injection, MEASURED): 4.5% | half-life [2, 5]: 30 to 60 min | half-life [2, 6]: 30 to 42 min | IC50 ([2]; plasma 60 minutes after intraperitoneal injection, mouse): 168 nM | IC50 ([2]; plasma 120 minutes after intraperitoneal injection, mouse): 371 nM | IC50 ([2]; plasma 240 minutes after intraperitoneal injection, mouse): 1820 nM

CC(C)[C@@H]1NC(=O)[C@@H](NC(=O)[C@H](Cc2ccc(O)cc2)NC(=O)[C@@H]2CCCN2C(=O)[C@H](C)N)CSSC[C@@H](C(N)=O)NC(=O)[C@H](CO)NC(=O)[C@H](Cc2c[nH]c3ccccc23)NC(=O)[C@H](CO)NC(=O)CCNC(=O)[C@H](CCCCN)NC(=O)[C@H](Cc2ccc(O)cc2)NC1=O [Compound 1, APYCVYKβASWSC-NH2] (H-APYCVYK[βAla]SWSC-NH2; disulfide 4-12)
IC50 [1, 4]: 67 ± 10 nM | effect of HSA on potency [3]: only a very small effect | IC50 [3]: 55 ± 13 nM

CCCCCCCCCCCCCCCC(=O)N[C@@H](CCC(=O)N[C@@H](CCC(=O)NCCCC[C@H](NC(=O)CNC(=O)CNC(=O)[C@@H]1CSSC[C@H](NC(=O)[C@H](Cc2ccc(O)cc2)NC(=O)[C@@H]2CCCN2C(=O)CCN)C(=O)N[C@@H](C(C)C)C(=O)N[C@@H](Cc2ccc(O)cc2)C(=O)N[C@@H](CCCNC(=N)N)C(=O)NCCC(=O)N[C@@H](CO)C(=O)N[C@@H](Cc2c[nH]c3ccccc23)C(=O)N[C@@H](CO)C(=O)N1)C(=O)NCC(N)=O)C(=O)O)C(=O)O [Compound 19]
less potent than compound 15 [1]: 5-6 fold | IC50 [1, 4]: 160 ± 30 nM | better potency compared to compound 18 (single γGlu) ([1]; two γGlu residues vs single γGlu, palmitoyl): ~3 fold | half-life [2, 5]: 60 to 90 min | half-life [2, 6]: ~48 min

CCCCCCCCCCCC(=O)N[C@@H](CC(=O)NCCCC[C@@H]1NC(=O)[C@H](Cc2ccc(O)cc2)NC(=O)[C@H](C(C)C)NC(=O)[C@@H](NC(=O)[C@H](Cc2ccc(O)cc2)NC(=O)[C@@H]2CCCN2C(=O)CCN)CSSC[C@@H](C(N)=O)NC(=O)[C@H](CO)NC(=O)[C@H](Cc2c[nH]c3ccccc23)NC(=O)[C@H](CO)NC(=O)CCNC1=O)C(=O)O [Compound 10, βAPYCVYK(lauroyl-βD)βASWSC-NH2] (H-[βAla]PYCVYK([βAsp-Lauroyl])[βAla]SWSC-NH2; disulfide 4-12)
IC50 [1, 4]: 110 ± 10 nM

CCCCCCCCCCCCCCCC(=O)N[C@@H](CCC(=O)N[C@@H](CCC(=O)NCCCC[C@H](NC(=O)[C@H](CO)NC(=O)CNC(=O)CNC(=O)CNC(=O)[C@@H]1CSSC[C@H](NC(=O)[C@H](Cc2ccc(O)cc2)NC(=O)[C@@H]2CCCN2C(=O)CCN)C(=O)N[C@@H](C(C)C)C(=O)N[C@@H](Cc2ccc(O)cc2)C(=O)N[C@@H](CCCNC(=N)N)C(=O)NCCC(=O)N[C@@H](CO)C(=O)N[C@@H](Cc2c[nH]c3ccccc23)C(=O)N[C@@H](CO)C(=O)N1)C(=O)NCC(N)=O)C(=O)O)C(=O)O [Compound 20] (H-[βAla]PYCVYR[βAla]SWSCGGGSK([γGlu-γGlu-Palmitoyl])G-NH2; disulfide 4-12)
IC50 [1, 4]: 190 ± 20 nM

CCCCCCCC(=O)NCCCC[C@@H]1NC(=O)[C@H](Cc2ccc(O)cc2)NC(=O)[C@H](C(C)C)NC(=O)[C@@H](NC(=O)[C@H](Cc2ccc(O)cc2)NC(=O)[C@@H]2CCCN2C(=O)CCN)CSSC[C@@H](C(N)=O)NC(=O)[C@H](CO)NC(=O)[C@H](Cc2c[nH]c3ccccc23)NC(=O)[C@H](CO)NC(=O)CCNC1=O [Compound 4, βAPYCVYK(octanoyl)βASWSC-NH2] (H-[βAla]PYCVYK(Octanoyl)[βAla]SWSC-NH2; disulfide 4-12)
IC50 [3]: 100 ± 30 nM

CCCCCCCCCCCC(=O)N[C@@H](CCC(=O)NCCCC[C@@H]1NC(=O)[C@H](Cc2ccc(O)cc2)NC(=O)[C@H](C(C)C)NC(=O)[C@@H](NC(=O)[C@H](Cc2ccc(O)cc2)NC(=O)[C@@H]2CCCN2C(=O)CCN)CSSC[C@@H](C(N)=O)NC(=O)[C@H](CO)NC(=O)[C@H](Cc2c[nH]c3ccccc23)NC(=O)[C@H](CO)NC(=O)CCNC1=O)C(=O)O [Compound 11, βAPYCVYK(lauroyl-γE)βASWSC-NH2] (H-[βAla]PYCVYK([γGlu-Lauroyl])[βAla]SWSC-NH2; disulfide 4-12)
IC50 [1, 4]: 84 ± 13 nM | half-life [2, 5]: 30 to 60 min

βAPYCVYRβASWSC-linker2-PEG (XPYCVYRXSWSCXXK; not fully specified; non-natural residues; cyclised or stapled) [APY-d3-PEG2]
potency compared with APY-d3 ([1]; ELISA inhibition of EphA4-ephrin-A5 interaction): several fold less potent than non-PEGylated APY-d3 | IC50 ([1]; ELISA inhibition of EphA4-ephrin-A5 interaction, read-out: IC50 (approximate)): ~80 nM

CCCCCCCCCCCCCCCC(=O)N[C@@H](CCC(=O)NCCCC[C@@H]1NC(=O)[C@H](Cc2ccc(O)cc2)NC(=O)[C@H](C(C)C)NC(=O)[C@@H](NC(=O)[C@H](Cc2ccc(O)cc2)NC(=O)[C@@H]2CCCN2C(=O)CCN)CSSC[C@@H](C(N)=O)NC(=O)[C@H](CO)NC(=O)[C@H](Cc2c[nH]c3ccccc23)NC(=O)[C@H](CO)NC(=O)CCNC1=O)C(=O)O [Compound 17, βAPYCVYK(palmitoyl-γE)BASWSC-NH2] (H-[βAla]PYCVYK([γGlu-Palmitoyl])[βAla]SWSC-NH2; disulfide 4-12)
IC50 [1, 4]: 2300 nM

CCCCCCCCCCCC(=O)N[C@@H](CC(=O)NCCCC[C@H](NC(=O)CNC(=O)CNC(=O)[C@@H]1CSSC[C@H](NC(=O)[C@H](Cc2ccc(O)cc2)NC(=O)[C@@H]2CCCN2C(=O)CCN)C(=O)N[C@@H](C(C)C)C(=O)N[C@@H](Cc2ccc(O)cc2)C(=O)N[C@@H](CCCNC(=N)N)C(=O)NCCC(=O)N[C@@H](CO)C(=O)N[C@@H](Cc2c[nH]c3ccccc23)C(=O)N[C@@H](CO)C(=O)N1)C(=O)NCC(N)=O)C(=O)O [Compound 13]
IC50 [1, 4]: 49 ± 11 nM

CCCCCCCCCCCC(=O)NCCCC[C@@H]1NC(=O)[C@H](Cc2ccc(O)cc2)NC(=O)[C@H](C(C)C)NC(=O)[C@@H](NC(=O)[C@H](Cc2ccc(O)cc2)NC(=O)[C@@H]2CCCN2C(=O)CCN)CSSC[C@@H](C(N)=O)NC(=O)[C@H](CO)NC(=O)[C@H](Cc2c[nH]c3ccccc23)NC(=O)[C@H](CO)NC(=O)CCNC1=O [Compound 8, βAPYCVYK(lauroyl)βASWSC-NH2] (H-[βAla]PYCVYK(Lauroyl)[βAla]SWSC-NH2; disulfide 4-12)
IC50 [1, 4]: 390 ± 80 nM

CCCCCCCCCCCCCCCC(=O)N[C@@H](CCC(=O)NCCCC[C@H](NC(=O)CNC(=O)CNC(=O)[C@@H]1CSSC[C@H](NC(=O)[C@H](Cc2ccc(O)cc2)NC(=O)[C@@H]2CCCN2C(=O)CCN)C(=O)N[C@@H](C(C)C)C(=O)N[C@@H](Cc2ccc(O)cc2)C(=O)N[C@@H](CCCNC(=N)N)C(=O)NCCC(=O)N[C@@H](CO)C(=O)N[C@@H](Cc2c[nH]c3ccccc23)C(=O)N[C@@H](CO)C(=O)N1)C(=O)NCC(N)=O)C(=O)O [Compound 18]
IC50 [1, 4]: 520 ± 80 nM | half-life [2, 5]: 60 to 90 min | half-life [2, 6]: ~48 min

CC(C)[C@@H]1NC(=O)[C@@H](NC(=O)[C@H](Cc2ccc(O)cc2)NC(=O)[C@@H]2CCCN2C(=O)[C@H](C)N)CSSC[C@@H](C(=O)NCC(=O)NCC(=O)N[C@@H](CCCCN)C(=O)NCC(N)=O)NC(=O)[C@H](CO)NC(=O)[C@H](Cc2c[nH]c3ccccc23)NC(=O)[C@H](CO)NC(=O)CCNC(=O)[C@H](CCCNC(=N)N)NC(=O)[C@H](Cc2ccc(O)cc2)NC1=O [Compound 2]
potency compared with APY-d2 ([1]; tested in parallel in the same ELISA): not significantly different from that for APY-d2 | effect of HSA on potency [3]: only a very small effect

CCCCCCCC(=O)NCCCC[C@H](NC(=O)CNC(=O)CNC(=O)[C@@H]1CSSC[C@H](NC(=O)[C@H](Cc2ccc(O)cc2)NC(=O)[C@@H]2CCCN2C(=O)CCN)C(=O)N[C@@H](C(C)C)C(=O)N[C@@H](Cc2ccc(O)cc2)C(=O)N[C@@H](CCCNC(=N)N)C(=O)NCCC(=O)N[C@@H](CO)C(=O)N[C@@H](Cc2c[nH]c3ccccc23)C(=O)N[C@@H](CO)C(=O)N1)C(=O)NCC(N)=O [Compound 7]
IC50 [1, 4]: 34 ± 6 nM | IC50 [3]: 110 ± 30 nM
